Experimental data: ChEMBL document CHEMBL1201862, “PubChem BioAssay data set” (2004)
Calls of active or inactive are those of the source.

Experiments:
Protein Wnt-3a = Protein Wnt-3a (Mus musculus, UniProt P27467); assay: antagonism of Wnt3a pathway luciferase reporter – Wnt-LIGHT cells, luminescence, selectivity assay for Gli-SUFU antagonist project, dose response (AID 651570); type: functional; settings: read-out: IC50_Mean;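 note: Wnt-LIGHT reporter cells stimulated with conditioned medium from Wnt3a-producing cells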
INS1 = assay: INS-1E survival protection against cytokine death – cell-based, luminescence, retest, dose response (AID 449756); type: functional; settings: Rattus norvegicus;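 note: cell death triggered by IL-1 beta plus TNF-alpha plus IFN-gamma mixture; protective hits raise ATP signal compared with cytokine alone wells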
[1] = molecular target: Adenosylmethionine-8-amino-7-oxononanoate aminotransferase (Mycobacterium tuberculosis, UniProt P9WQ81); assay: Mycobacterium tuberculosis BioA enzyme inhibitor Measured in Biochemical System Using Plate Reader - 2163-02_Inhibitor_Dose_CherryPick_Activity.; type: functional, Mycobacterium tuberculosis UT205
[2] = molecular target: T1, Polyadenylate-binding protein 1 (Homo sapiens, UniProt P11940); assay: MLLE domain peptide-binding blockers, IC50 – biochemical, fluorescence polarization, FITC-PAM2 peptide, dose response (AID 602259); type: functional; settings: read-out: IC50_Mean
[3] = molecular target: T1, Polyadenylate-binding protein 1; assay: MLLE binding blockers, Cy5 peptide tracer – biochemical, fluorescence polarization, Cy5-PAM2 peptide, secondary, miRNA deadenylation inhibitor project, dose response (AID 602260); type: functional; settings: read-out: IC50_Mean
[4] = molecular target: DNA repair and recombination protein RAD54-like (Homo sapiens, UniProt Q92698); assay: RAD54 Holliday junction migration blockers – biochemical, fluorescence, cherry-picked samples, dose series, confirmation (AID 651657); type: functional
[5] = HPDE-C7 pancreatic duct cell viability loss – fluorescence, HTS (AID 430); type: functional, cell-based; settings: Homo sapiens
[6] = molecular target: T2, Apoptotic protease-activating factor 1 (Homo sapiens, UniProt O14727); type: functional
T2 sequence (O14727 whole entry): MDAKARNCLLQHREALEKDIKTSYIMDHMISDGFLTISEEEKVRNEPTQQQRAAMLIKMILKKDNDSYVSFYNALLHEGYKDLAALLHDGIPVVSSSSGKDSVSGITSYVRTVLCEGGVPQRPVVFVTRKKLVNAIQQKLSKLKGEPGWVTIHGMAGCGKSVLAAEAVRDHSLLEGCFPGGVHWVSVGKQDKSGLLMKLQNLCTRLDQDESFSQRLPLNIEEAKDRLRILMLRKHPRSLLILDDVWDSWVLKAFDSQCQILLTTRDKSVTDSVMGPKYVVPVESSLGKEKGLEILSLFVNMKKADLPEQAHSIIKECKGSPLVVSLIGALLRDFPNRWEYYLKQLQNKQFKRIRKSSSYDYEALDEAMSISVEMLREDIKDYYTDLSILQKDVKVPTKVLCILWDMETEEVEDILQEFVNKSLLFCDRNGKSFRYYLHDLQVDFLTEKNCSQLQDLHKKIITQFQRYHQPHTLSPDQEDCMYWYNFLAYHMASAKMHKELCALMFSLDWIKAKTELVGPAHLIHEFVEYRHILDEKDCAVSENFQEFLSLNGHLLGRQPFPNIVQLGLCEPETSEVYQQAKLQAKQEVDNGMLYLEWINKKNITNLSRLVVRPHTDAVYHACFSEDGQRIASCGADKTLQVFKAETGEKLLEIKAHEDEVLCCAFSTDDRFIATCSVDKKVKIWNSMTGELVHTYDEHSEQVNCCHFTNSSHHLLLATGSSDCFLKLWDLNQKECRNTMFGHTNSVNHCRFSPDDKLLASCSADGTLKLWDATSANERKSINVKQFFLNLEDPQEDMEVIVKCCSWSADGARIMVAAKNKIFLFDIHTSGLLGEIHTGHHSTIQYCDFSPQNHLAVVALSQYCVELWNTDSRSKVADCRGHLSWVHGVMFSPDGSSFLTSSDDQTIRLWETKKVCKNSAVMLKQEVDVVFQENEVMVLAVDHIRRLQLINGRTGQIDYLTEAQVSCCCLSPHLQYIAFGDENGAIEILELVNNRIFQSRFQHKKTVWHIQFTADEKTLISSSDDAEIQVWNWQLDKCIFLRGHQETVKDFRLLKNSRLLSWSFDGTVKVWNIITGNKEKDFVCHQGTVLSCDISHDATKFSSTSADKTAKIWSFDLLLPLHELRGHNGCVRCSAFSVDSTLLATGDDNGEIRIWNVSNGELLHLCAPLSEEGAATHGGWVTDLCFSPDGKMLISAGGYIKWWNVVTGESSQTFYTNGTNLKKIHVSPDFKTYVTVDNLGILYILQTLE

[7] = molecular target: T3, Histone-lysine N-methyltransferase NSD2 (Homo sapiens, UniProt O96028); type: biochemical
T3 sequence (O96028 whole entry): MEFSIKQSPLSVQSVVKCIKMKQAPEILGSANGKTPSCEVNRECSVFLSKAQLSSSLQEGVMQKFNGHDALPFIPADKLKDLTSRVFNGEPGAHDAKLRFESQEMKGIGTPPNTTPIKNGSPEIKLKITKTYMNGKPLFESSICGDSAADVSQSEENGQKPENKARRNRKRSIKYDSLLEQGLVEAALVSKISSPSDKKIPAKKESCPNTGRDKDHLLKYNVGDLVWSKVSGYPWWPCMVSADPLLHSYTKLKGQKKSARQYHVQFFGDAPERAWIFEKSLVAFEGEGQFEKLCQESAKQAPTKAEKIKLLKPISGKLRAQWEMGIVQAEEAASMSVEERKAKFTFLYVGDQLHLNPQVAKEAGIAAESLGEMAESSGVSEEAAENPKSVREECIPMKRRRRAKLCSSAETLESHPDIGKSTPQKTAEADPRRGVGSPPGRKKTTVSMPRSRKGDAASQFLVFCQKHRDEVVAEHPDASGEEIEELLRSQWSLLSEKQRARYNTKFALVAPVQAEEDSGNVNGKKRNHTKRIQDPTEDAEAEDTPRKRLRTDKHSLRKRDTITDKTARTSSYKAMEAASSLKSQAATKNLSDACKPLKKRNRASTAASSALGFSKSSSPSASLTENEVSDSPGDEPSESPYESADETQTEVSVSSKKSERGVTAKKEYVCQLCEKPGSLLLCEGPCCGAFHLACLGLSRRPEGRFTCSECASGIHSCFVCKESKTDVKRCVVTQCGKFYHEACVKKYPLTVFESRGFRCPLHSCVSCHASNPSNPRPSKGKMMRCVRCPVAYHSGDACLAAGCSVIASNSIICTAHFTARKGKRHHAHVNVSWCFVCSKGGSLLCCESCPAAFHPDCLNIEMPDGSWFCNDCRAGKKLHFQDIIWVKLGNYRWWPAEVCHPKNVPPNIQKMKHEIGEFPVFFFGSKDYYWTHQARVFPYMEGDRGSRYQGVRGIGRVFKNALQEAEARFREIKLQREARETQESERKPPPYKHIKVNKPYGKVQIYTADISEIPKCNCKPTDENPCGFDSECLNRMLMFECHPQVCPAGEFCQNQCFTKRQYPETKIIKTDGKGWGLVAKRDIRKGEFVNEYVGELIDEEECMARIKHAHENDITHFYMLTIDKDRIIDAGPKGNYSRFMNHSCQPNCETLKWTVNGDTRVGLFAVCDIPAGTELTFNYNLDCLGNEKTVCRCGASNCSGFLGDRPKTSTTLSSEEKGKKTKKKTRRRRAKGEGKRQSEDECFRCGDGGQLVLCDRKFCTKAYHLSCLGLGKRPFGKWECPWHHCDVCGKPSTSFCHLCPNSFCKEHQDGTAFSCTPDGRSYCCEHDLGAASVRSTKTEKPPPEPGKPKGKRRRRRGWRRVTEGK

[8] = inhibition of ARNT PAS-B/TACC3 complex formation – biochemical, AlphaScreen, cherry-picked samples, confirmation (AID 651703); type: functional, Homo sapiens;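 note: His-tagged ARNT PAS-B domain paired with GST-TACC3 E629A dimer coactivator fragment; potency of inhibitors that break up the complex and lower AlphaScreen signal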
[9] = viability loss of HPDE-C7K cells – cell-based, fluorescence, HTS, primary screen (AID 431); type: functional; settings: Homo sapiens

T1 sequence (P11940 whole entry, the tested form may be a part): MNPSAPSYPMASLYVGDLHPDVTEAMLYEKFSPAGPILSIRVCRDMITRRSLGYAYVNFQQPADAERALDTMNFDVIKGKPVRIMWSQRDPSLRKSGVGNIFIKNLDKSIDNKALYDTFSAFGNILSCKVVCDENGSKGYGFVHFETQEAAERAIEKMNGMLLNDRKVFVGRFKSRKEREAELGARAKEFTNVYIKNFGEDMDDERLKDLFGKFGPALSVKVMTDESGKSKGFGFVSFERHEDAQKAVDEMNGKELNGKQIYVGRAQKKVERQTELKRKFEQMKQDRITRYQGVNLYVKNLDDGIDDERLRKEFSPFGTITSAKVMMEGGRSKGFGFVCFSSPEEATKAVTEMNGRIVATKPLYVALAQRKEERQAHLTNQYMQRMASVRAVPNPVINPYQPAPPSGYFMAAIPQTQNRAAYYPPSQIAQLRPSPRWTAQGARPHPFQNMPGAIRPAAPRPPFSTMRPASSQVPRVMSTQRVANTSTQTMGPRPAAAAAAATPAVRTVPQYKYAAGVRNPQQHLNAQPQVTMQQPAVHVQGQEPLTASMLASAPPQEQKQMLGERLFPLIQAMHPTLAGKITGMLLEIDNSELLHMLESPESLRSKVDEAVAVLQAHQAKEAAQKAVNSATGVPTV
Sequence of Adenosylmethionine-8-amino-7-oxononanoate aminotransferase (P9WQ81 whole entry, the tested form may be a part): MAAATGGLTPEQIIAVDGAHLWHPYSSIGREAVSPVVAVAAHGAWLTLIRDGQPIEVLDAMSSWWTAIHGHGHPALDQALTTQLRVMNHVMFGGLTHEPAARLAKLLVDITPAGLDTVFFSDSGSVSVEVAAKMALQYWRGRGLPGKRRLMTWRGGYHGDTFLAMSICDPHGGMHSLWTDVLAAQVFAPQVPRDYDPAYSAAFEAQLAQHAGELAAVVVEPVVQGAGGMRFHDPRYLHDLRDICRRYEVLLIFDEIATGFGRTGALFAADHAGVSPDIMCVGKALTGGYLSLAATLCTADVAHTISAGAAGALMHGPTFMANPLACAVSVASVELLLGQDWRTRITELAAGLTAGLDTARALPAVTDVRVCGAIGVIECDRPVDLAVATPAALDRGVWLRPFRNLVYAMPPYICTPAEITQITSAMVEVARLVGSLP
Sequence of Protein Wnt-3a (P27467 whole entry): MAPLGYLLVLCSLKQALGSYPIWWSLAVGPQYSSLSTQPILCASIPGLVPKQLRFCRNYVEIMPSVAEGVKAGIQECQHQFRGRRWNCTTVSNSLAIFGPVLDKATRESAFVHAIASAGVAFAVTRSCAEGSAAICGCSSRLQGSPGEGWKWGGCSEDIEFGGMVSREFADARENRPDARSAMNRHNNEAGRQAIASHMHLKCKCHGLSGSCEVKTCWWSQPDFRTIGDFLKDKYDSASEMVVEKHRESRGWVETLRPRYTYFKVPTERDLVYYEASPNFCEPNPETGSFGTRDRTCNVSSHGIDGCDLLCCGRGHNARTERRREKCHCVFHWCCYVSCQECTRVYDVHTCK
Sequence of DNA repair and recombination protein RAD54-like (Q92698 whole entry): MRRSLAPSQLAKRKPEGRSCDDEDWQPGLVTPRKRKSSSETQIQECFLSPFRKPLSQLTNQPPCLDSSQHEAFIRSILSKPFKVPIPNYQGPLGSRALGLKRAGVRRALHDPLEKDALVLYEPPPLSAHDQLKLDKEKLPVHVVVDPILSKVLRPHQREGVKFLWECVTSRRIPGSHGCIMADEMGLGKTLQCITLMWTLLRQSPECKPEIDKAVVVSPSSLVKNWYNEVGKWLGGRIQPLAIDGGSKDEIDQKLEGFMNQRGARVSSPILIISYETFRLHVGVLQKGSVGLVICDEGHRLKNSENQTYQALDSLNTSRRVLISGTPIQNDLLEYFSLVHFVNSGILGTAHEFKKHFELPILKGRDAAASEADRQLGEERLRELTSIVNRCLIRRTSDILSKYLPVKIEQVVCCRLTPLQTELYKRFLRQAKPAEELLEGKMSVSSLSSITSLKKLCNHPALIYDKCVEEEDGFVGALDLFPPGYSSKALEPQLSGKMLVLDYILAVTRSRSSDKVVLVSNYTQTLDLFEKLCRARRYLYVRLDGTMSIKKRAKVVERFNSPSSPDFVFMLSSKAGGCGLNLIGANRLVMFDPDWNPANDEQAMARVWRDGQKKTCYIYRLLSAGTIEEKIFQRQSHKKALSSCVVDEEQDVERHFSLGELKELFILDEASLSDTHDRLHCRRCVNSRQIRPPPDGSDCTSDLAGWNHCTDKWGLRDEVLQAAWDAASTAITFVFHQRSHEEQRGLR

## Cc1sc2ncnc(NCC(O)c3ccc([N+](=O)[O-])cc3)c2c1C (centres undefined)
Protein Wnt-3a
  IC50: 0.544 µM (active)
INS1
  AC50: 3.56 µM (active)

## CNC(=O)C[C@H]1CC[C@@H]2[C@H](COC[C@@H](O)CN2C(=O)Nc2cccc(OC)c2)O1
[1]
  AC50: 4.57 µM (active)

## CC(C)C(=O)Nc1ccc(NC(=S)NC(=O)c2ccc([N+](=O)[O-])cc2)cc1
[2]
  IC50: > 66 µM (inactive)
[3]
  IC50: > 66 µM (inactive)

## Cc1ccnc(SC2CC(=O)N(c3ccccc3)C2=O)n1 (centres undefined)
[2]
  IC50: > 66 µM (inactive)
[3]
  IC50: > 66 µM (inactive)

## CC(=O)c1ccc(C(=O)N2CCCC(C(=O)c3ccc(Cl)cc3)C2)s1 (centres undefined)
[1]
  AC50: 2.51 µM (active)

## CC(N)c1csc(Nc2nncc3ccccc23)n1 (centres undefined)
[4]
  AC50: 28.5 µM (active)

## COCCCn1c(N)c(C(=O)NCCC(C)C)c2nc3ccccc3nc21
[5]
  EC50: 11.3 µM (active)
[6]
  IC50: 46.2 µM (active)
[7]
  AC50: 15.9 µM (active)
[8]
  AC50: 74.7 µM (active)
[9]
  EC50: 12 µM (active)
